These results are taken from US5929035A, “Methods of treating intestinal disorders” (Regents of the University of Michigan, priority 1998, dated 1999).

Where “and” joins values, the source holds several entries; their conditions need not be identical. Identical values can stand only once.

One test deals with post-operative ileus. Conditions: patients after abdominal / gastrointestinal surgery; literature trials; cited from earlier work.
In a further test the test system is colonic motility. The following applies: literature; cited from earlier work.
The subject of another test is IBS patients. Conditions: literature; cited from earlier work.
Test [1] relates to longitudinal muscle strips of proximal colon from BAC- or vehicle-treated rats. Kind of test: Benzalkonium chloride (BAC) myenteric plexus ablation, organ bath experiments. The arrangement: species or system rat. The source says: This example examined benzalkonium chloride (BAC)-treatment. […] EFS caused frequency-dependent and TTX-sensitive contractions in vehicle-treated tissues but not BAC-treated tissues. However, carbachol contracted both vehicle- and BAC-treated tissues with the same degree. These previous studies indicate that chronic ablation of the myenteric plexus by serosal application of BAC essentially eliminates neuronally mediated responses without a concomitant alteration in muscle contractility. To investigate if the action of OFQ is mediated via intramural myenteric plexus, BAC (0.1%) was applied to the serosal surface of the proximal colon every 5 min for 30 min and then rinsed off with saline. Saline-treated group served as controls. Two weeks after BAC- or saline-treatment, the longitudinal muscle strips were used for the organ bath experiments.
The area under the curve was calculated using Planix 7 (Sokkia Corporation,Overland Park, Kans.) and expressed as a motility index. The area under the curve of basal contraction was evaluated over 10 min in each experiment. The area under the curve of antagonist-induced contractions and OFQ-induced contractions was also evaluated over 10 min. The motility index was compared between basal contractions and OFQ-induced contractions in each experiment.

Test [2] deals with longitudinal muscle from the rat proximal colon.
For test [3], the system named is longitudinal and circular muscle from rat colon (proximal colon and distal colon).
Test [4] has as its system longitudinal and circular muscle layer from the stomach and small intestine. The arrangement: species or system rat.
Test [5] has as its system longitudinal and circular muscle of the rat proximal colon.
The subject of test [6] is longitudinal muscle from rat proximal colon.
In test [7] the test system is longitudinal muscle strips from rat ileum.
In test [8] the test system is longitudinal muscle strips from rat gastric body.
Test [9] relates to longitudinal muscle strips from rat proximal colon.
Test [10] concerns 3H-ACh release from longitudinal muscle strips of ileum. The arrangement: species or system rat.
Test [11] relates to 3H-ACh release from longitudinal muscle strips of gastric body. Further details: species or system rat.
Test [12] concerns 3H-ACh release from longitudinal muscle strips of proximal colon. Further details: species or system rat.
The next test has as its system proximal colon. The arrangement: species or system rats. Conditions: rat, in vivo, iv.
In the next test the test system is stomach. The arrangement: species or system rats. The following applies: rat, in vivo, iv.
The next test concerns colonic transit. The arrangement: species or system rats. Conditions: rat, in vivo, sc.
The next test deals with gastrointestinal transit. Further details: species or system rats. The following applies: rat, in vivo, sc.
The test system of a further test is opioid receptor. The following applies: cited from earlier work.
In a further test the test system is mouse vas deferens. The following applies: cited from earlier work.
The test system of a further test is guinea pig ileum. Conditions: cited from earlier work.

For `COc1cc(N)c(Cl)cc1C(=O)NC1CCN(CCCOc2ccc(F)cc2)CC1OC` (stereo not drawn) [cisapride, Cisapride], in the test with post-operative ileus, the “duration of post-operative ileus, treated vs placebo/control patients” value is given as “no difference”. For the same molecule, in the test on colonic motility, the “effect on colonic motility” value is listed as “little effect” and the “efficacy in constipated patients” value is reported as “not very effective”. In addition, in the test on IBS patients, the “stool frequency in IBS patients” value is “increase stool frequency” and the “whole gut transit in IBS patients” value was “accelerate whole gut transit”.
`C[N+](C)(C)CCOC(N)=O` [carbachol, reference compound]: the “contraction of control and BAC-treated tissues” value in test [1] (carbachol 10^-6 M) is “contracted both control and BAC-treated tissues with the same degree”. For the same molecule, the “contractions in the presence of TTX” value in test [2] is reported as “caused further contractions”.
On to `CC(C)C[C@H](NC(=O)[C@H](CCCCN)NC(=O)[C@H](CCCN=C(N)N)NC(=O)[C@H](C)NC(=O)[C@H](CO)NC(=O)[C@H](CCCCN)NC(=O)[C@H](CCCN=C(N)N)NC(=O)[C@H](C)NC(=O)CNC(=O)[C@@H](NC(=O)[C@H](Cc1ccccc1)NC(=O)CNC(=O)CNC(=O)[C@@H](N)Cc1ccccc1)[C@@H](C)O)C(=O)N[C@@H](C)C(=O)N[C@@H](CC(N)=O)C(=O)N[C@@H](CCC(N)=O)C(=O)O` [OFQ, Phe-Gly-Gly-Phe-Thr-Gly-Ala-Arg-Lys-Ser-Ala-Arg-Lys-Leu-Ala-Asn-Gln], for which, in [3], the “contractions in longitudinal muscle of proximal colon compared with distal colon (in words)” value is “much greater”, the “contractions in longitudinal muscle of proximal colon relative to distal colon” value is given as 2-3 fold, the “region of rat gastrointestinal tract in which contractions were induced” value was “induced contractions only in the colon” and the “threshold OFQ concentration inducing contractions” value is listed as 10^-9 M. Moreover, the “contractions in longitudinal and circular muscle layer from stomach and small intestine” value in test [4] is “failed to elicit significant contractions”. Besides, in [5], the “contractions at 10^-7 M compared with 10^-6 M” value is “not significantly different”; the “dose dependence of induced contractions” value was “in a dose-dependent manner”; the “maximal effect, increase of basal contraction” value was 278%±24% and 215%±32%; the “persistence of strong phasic contractions” value was 10 to 15 min. Moreover, in test [5], the “strips showing a potent initial phasic contraction followed by a phasic response” value came to 60.9%, the “strips showing a smaller initial contraction followed by a gradually increasing phasic response” value came to 26.4% and the “strips showing only a slight initial contraction followed by a pronounced phasic response” value is 12.6%. In addition, the “OFQ-induced contractions in Ca2+-free medium” value in [6] is “abolished”. For the same molecule, in [7], the “EFS-evoked muscular contraction reduced to” value came to 41.2±8.5%; the “EFS-evoked on- and off-contraction in ileum” value is on record as “significantly reduced”; the “dose dependence of reduction of EFS-evoked muscular contraction” value is recorded as “in a dose dependent manner”. For the same molecule, in [8], the “EFS-evoked muscular contraction reduced to” value was 85.2±5.6%, the “EFS-evoked of-contraction in the stomach” value is given as “significantly reduced” and the “dose dependence of reduction of EFS-evoked muscular contraction” value is given as “in a dose dependent manner”. Also, in [9], the “off-contraction in response to EFS of the proximal colon” value is “no inhibitory effects” and the “reduction of EFS-evoked muscular contraction” value is listed as “not in the proximal colon”. Moreover, in test [1], the “contraction of longitudinal muscle from vehicle-treated rats” value is on record as “caused significant contractions” and the “contraction of longitudinal muscles from BAC-treated rats” value is “no contractile effects”. In test [10], the “3H-ACh release in response to EFS reduced to” value turned out to be 44.7±5.8% and the “basal release of 3H-ACh” value is listed as “no effects”. In test [11], the “3H-ACh release in response to EFS reduced to” value is reported as 88.1±4.3% and the “basal release of 3H-ACh” value is on record as “no effects”. In test [12], the “basal release of 3H-ACh” value was “no effects” and the “inhibitory effect on EFS-evoked 3H-ACh release” value is given as “not observed”. In addition, in test [2], the “OFQ-induced contractions in the presence of TTX” value is “failed to elicit additional contractions”. The “muscular contractions in the proximal colon” value with proximal colon is given as “significantly increased muscular contractions”. Besides, the “muscular contractions in the stomach” value with stomach is listed as “not in the stomach”. Also, the colonic transit result in the test on colonic transit is recorded as “significantly accelerated”. Further, in the test with gastrointestinal transit, the gastrointestinal transit result was “without affecting”. In the test on opioid receptor, the “activity at the opioid receptor” value is recorded as “does not show any activity”. Further, the “effect on EFS-evoked muscular contraction” value with mouse vas deferens was “potent inhibitory effects”. The “effect on EFS-evoked muscular contraction” value in the test with guinea pig ileum was “potent inhibitory effects”.
As to dynorphin A [reference compound], the colonic transit entry in the test with colonic transit is reported as “delays colonic transit”.
